{"source": "paper PMC4211885", "about": "(PLoS ONE, 2014)", "key": {"OA/TAMac receptor [1]": {"target": "T1, OA/TAMac receptor (Macrobrachium rosenbergii, UniProt D9U2B9)", "T1 sequence (D9U2B9 entry or part of it)": "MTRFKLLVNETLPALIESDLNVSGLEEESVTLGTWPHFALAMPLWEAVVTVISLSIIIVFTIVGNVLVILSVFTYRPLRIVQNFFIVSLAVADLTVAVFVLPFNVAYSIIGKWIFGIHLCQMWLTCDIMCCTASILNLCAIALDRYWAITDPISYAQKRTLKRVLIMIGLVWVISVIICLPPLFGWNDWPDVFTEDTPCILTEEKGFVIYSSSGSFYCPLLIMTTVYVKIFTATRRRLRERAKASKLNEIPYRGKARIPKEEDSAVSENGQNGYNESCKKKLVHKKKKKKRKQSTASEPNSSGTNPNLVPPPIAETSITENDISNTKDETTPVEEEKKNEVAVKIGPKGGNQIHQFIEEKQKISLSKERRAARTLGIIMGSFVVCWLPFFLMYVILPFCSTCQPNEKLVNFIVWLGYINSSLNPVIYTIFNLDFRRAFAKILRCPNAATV", "test": "Agonist-evoked direct-current (ID) in Xenopus oocytes injected with OA/TAMac cRNA, two-electrode voltage clamp", "assay_type": "cell-based", "settings": "for Amplitude of agonist evoked ID relative to octopamine-evoked current: all agonists at 50 µM, within single oocytes", "text": "We used Xenopus oocytes to express the prawn OA/TAMac receptor by injection of synthetic cRNA. The injection of foreign RNA into Xenopus oocytes typically induces the expression of multiple native chloride and potassium channels. Ligand evoked currents resulting from modulation of these channels have been used extensively in the characterization of heterologously expressed GPCRs. Oocytes are typically voltage clamped at a constant membrane potential around −60 mV and deviations in holding potential are measured. We refer to currents measured in this way as direct-currents (ID) (after) in order to distinguish them from the voltage-evoked transient current (ICl-T) described later.\nBoth flow rate and pulse duration were precisely controlled and comparisons were made relative to currents within single oocytes.\nTo characterize the dose dependence of ID, series of single transmitters were applied to different individual oocytes injected with OA/TAMac. Oocytes were voltage clamped at −60 mV and tyramine, (+/−)-octopamine, or dopamine were applied using 30 second perfusion-switched applications (see methods for more details).\n(§1) Recordings were performed 1–3 days post-injection at room temperature (20–22°C). Currents were recorded under two-electrode voltage clamp using an Axoclamp 900a amplifier (Molecular Devices LLC, CA USA). A digidata 1440a analog to digital converter was used in conjunction with pCLAMP 10 software (Molecular Devices) for data acquisition and to generate voltage commands. For each step protocol or chemical application data were typically sampled at 5 KHz and filtered digitally at 1 KHz. For the duration of each experiment the current was also continuously sampled at 1 kHz using a separate minidigi 1A digitizer (Molecular Devices). Glass microelectrodes were pulled from filamented 1.2 mm thin wall borosilicate glass (World Precision Instruments, Sarasota, FL) using a Sutter Instruments P-97 puller. They were filled with 3 M KCl and had resistances of 0.8–2.0 MΩ. A silver chloride pellet immersed in 3 M KCl and connected to the bath via a 3% agar bridge made with 3 M KCl was used as the reference electrode.\nOocytes were continuously perfused at 1.5 mL/min either with ND 96 or test compounds dissolved in ND 96. Two types of application were used over the course of this study, a perfusion-switch or a focal application. In all cases solutions were delivered through a gravity fed system and switched using a computer controlled bank of pinch valves. Flow rate was regulated with a manual screw-type pinch valve.\nFor focal application a triple barrel pipette with three parallel independently switched channels was positioned about 1 mm from the surface of the oocyte, up-stream of a cross flow, at an approximate angle of 45 degrees (schematic shown in Fig. S8). Drugs were focally applied during continuous perfusion with ND 96.\n(§2) In experiments where more than three drugs or concentrations were tested a precisely controlled 30 s perfusion-switch was used. Up to eight channels were connected to the bath via an 8-way manifold. There was an approximately 6–7 s delay for solutions to traverse the dead volume between the manifold and the bath."}, "[2]": {"test_system": "CFTR conductance (intracellular cAMP)", "test": "cAMP detection by whole oocyte (CFTR) conductance in oocytes co-expressing CFTR and OA/TAMac", "assay_type": "cell-based, Xenopus laevis", "settings": "FSK at 50 µM", "text": "It is also unlikely that the effects of tyramine at high concentration result from an increase in cAMP. It is common that octopaminergic GPCRs can couple through the canonical Gαs/cAMP pathway so we used co-expression of the Cystic Fibrosis Trans-membrane Conductance Regulator (CFTR) as a means of testing for increases in cAMP (see methods for more detail) [60]–[63].\nAs a means of detecting rises in intracellular cAMP levels we tested oocytes co-expressing the CFTR channel and OA/TAMac. Heterologously expressed CFTR can be used as an extremely sensitive assay for intracellular cAMP in Xenopus oocytes. CFTR mediates a chloride-selective leak conductance that is activated by increases in intracellular cAMP [63]. Activity of CFTR can thus be used to indicate whether changes in cAMP correspond with ligand application [60]–[62]. Whole oocyte conductance was monitored using a step protocol and calculated from I/V plots. The command voltage was stepped from the holding potential to various levels (−10 mV to −55 mV in −5 mV increments) for 150 ms. The steady state current during each step was plotted against the command voltage and fit to a line using Clampfit 10 software (Fig. S7A). The slope of the line was taken as the conductance. To minimize the magnitude of the holding current between drug applications, oocytes expressing CFTR were typically held at −20 mV which is close to the typical chloride reversal potential. This was confirmed by the fact that the direct-current evoked by forskolin could appear inward or outward at −20 mV. Oocytes expressing either OA/TAMac alone or OA/TAMac and CFTR typically had resting membrane potentials between −20 mV and −30 mV (mean of −26±5 mV calculated from oocytes in Fig. S7) due to increased expression of endogenous chloride currents.\n(A) The measurement of whole oocyte conductance was done by plotting steady state current against the command voltage recorded during a step protocol. It is defined as the slope (I/V) of the linear least squares regression line. In the example shown tyramine (TA) causes no apparent change in whole oocyte conductance. Octopamine (OA) causes a small change compared to the adenylate cyclase activator forskolin (FSK). […] These cumulative data are from 20 OA/TAMac and CFTR-injected oocytes and 6 OA/TAMac -only injected oocytes. Conductance was measured as shown in A. Not all compounds were tested in all oocytes. Each response is treated as an independent sample. Concentrations of OA and TA were at 100 µM or 1000 µM, FSK was at 50 µM. Some points obtained at 3 minutes were grouped with the 4 minute responses. (C) The change in conductance (Δg) occurring within oocytes as determined by the difference between baseline and the indicated time points post-application of compound. […]"}, "OA/TAMac receptor [3]": {"target": "T1, OA/TAMac receptor", "test": "Antagonist block of ID evoked by 50 µM octopamine in OA/TAMac-injected oocytes", "assay_type": "cell-based", "procedure": "as §1, §2"}, "Uninjected oocytes": {"test_system": "Uninjected oocytes", "test": "Direct-current response of uninjected oocytes (control)", "assay_type": "cell-based, Xenopus laevis", "settings": "n = 5", "procedure": "We first tested receptor-injected oocytes for the occurrence of a response to biogenic amines. Applications of tyramine, octopamine, or dopamine produced an inward ID, typically ranging between 50 nA and 500 nA, under a constant holding potential of −60 mV. […] The amplitude of tyramine evoked ID at concentrations below 10 µM was greater than octopamine or dopamine within the same oocyte (Figs. 2A and S2). […] Instead it would rise and then begin to decline prior to the removal of agonist (dotted line). However, at high concentrations, above 100 µM, ID appeared to approach a stable plateau (Fig. 2B).\nas §1\nSupplementary file pone.0111314.s001.tif: Figure S1 Direct-current (ID) responses are specifically evoked by agonists in oocytes injected with OA/TAMac only. […] The trace is representative of an experimental set of 5 oocytes. Additional uninjected oocytes were tested with various experimental sets throughout the course of this study. (B) A typical preliminary test of agonist sensitivity. Injection of OA/TAMac cRNA alone is sufficient to confer sensitivity to OA. […] Applications are approximately 30 seconds in the upper trace. (C) The response of clonidine (CN), synephrine (SN), and OA within a single OA/TAMac injected oocyte. […] All drugs are applied for 30 seconds each as indicated by black rectangles. Agonist evoked currents are measured within oocytes relative to the octopamine response at 50 µM. The comparison is made to OA because the amplitude of the tyramine response becomes small at concentrations above 10 µM. This is due to a mechanistically undefined process not seen with any other agonist we tested. Note that TA is the first compound applied to a naïve oocyte in this example. […] (TIF) Click here for additional data file."}, "[4]": {"test": "Solubility limit in ND 96 when preparing test solutions", "assay_type": "physicochemical", "settings": "ND 96, from methanol stock", "experimental": "Compounds were obtained from Sigma and dissolved in ND96 or calcium free ND 96 (96 mM NaCl, 2 mM KCl, 5 mM MgCl2, 0.1 mM EGTA, and 5 mM HEPES, pH 7.6), unless stated otherwise. […] SQ-22536 was prepared as a 0.1 M stock in water. Yohimbine was dissolved in acidic ND 96 to 1 mM, before being serially diluted at pH 7.6. Forskolin was prepared as a 0.05 M stock in DMSO. Thapsigargin was prepared as a 0.01 M stock in DMSO. (−)-Quinpirol was made as a 0.01 M stock in ND96 and stored in aliquots at −20°C. […] For all antagonists serial dilutions were made in ND 96 containing 50 µM octopamine and applied as a mixture."}, "[5]": {"settings": "antagonist applied as mixture with 50 µM octopamine, 30 second perfusion-switch, −60 mV, estimated graphically, read-out: IC50 for block of octopamine-evoked ID"}}, "note": "Entries after “also recorded” stand apart in the source; their conditions may differ. Like-named read-outs stand apart in the source and are kept apart here."}
{"smiles": "CNCC(O)c1ccc(O)cc1", "note": "(racemic) [(+/−)-synephrine]", "values": [{"measurement": "Amplitude of agonist evoked ID relative to octopamine-evoked current", "setting": "OA/TAMac receptor [1]; 30 second perfusion-switch", "result": "smaller currents than octopamine or β-PEA"}]}
{"smiles": "CCCN1CCC[C@@H]2Cc3n[nH]cc3C[C@H]21", "note": "[(−)-quinpirole]", "values": [{"measurement": "Amplitude of agonist evoked ID relative to octopamine-evoked current", "setting": "OA/TAMac receptor [1]; 30 second perfusion-switch", "result": "smaller currents than octopamine or β-PEA"}, {"measurement": "Amplitude of agonist evoked ID relative to octopamine-evoked current", "setting": "OA/TAMac receptor [1]; 30 second perfusion-switch, listed as quinpirole", "result": "produces a response in injected oocytes and not in uninjected oocytes"}]}
{"smiles": "Clc1cccc(Cl)c1N=C1NCCN1", "note": "[Clonidine]", "values": [{"measurement": "Amplitude of agonist evoked ID relative to octopamine-evoked current", "setting": "OA/TAMac receptor [1]; 30 second perfusion-switch", "result": "no visible response"}]}
{"smiles": "C=C[C@@]1(C)CC(=O)[C@]2(O)[C@@]3(C)[C@@H](O)CCC(C)(C)[C@@H]3[C@H](O)[C@H](OC(C)=O)[C@@]2(C)O1", "note": "[FSK, forskolin]", "values": [{"measurement": "Evoked whole oocyte conductance", "setting": "[2]", "result": "significantly larger conductance than baseline or TA"}]}
{"smiles": "CN1CCc2cc(Cl)c(O)cc2[C@@H](c2ccccc2)C1", "note": "[SCH-23390]", "values": [{"measurement": "IC50", "setting": "OA/TAMac receptor [3]; [5]", "result": "~9.6", "unit": "µM"}]}
{"smiles": "Nc1ncnc2c1ncn2C1CCCO1", "note": "(stereo not drawn) [SQ-22536]", "values": [{"measurement": "Effect of adenylate cyclase inhibitor on amine evoked ID", "setting": "OA/TAMac receptor [1]; tyramine n = 3, octopamine n = 6", "result": "no apparent effect; also recorded: no obvious effect"}]}
{"smiles": "NCCc1ccc(O)c(O)c1", "note": "[dopamine]", "values": [{"measurement": "ID response amplitude (mean ± s.d.)", "setting": "OA/TAMac receptor [1]; 10 µM, 10 second focal application, −60 mV, OA/TAMac and CFTR co-injected, n = 11 oocytes", "result": "46±31", "unit": "nA"}, {"measurement": "EC50", "setting": "OA/TAMac receptor [1]; 30 second perfusion-switch, voltage clamped at −60 mV, approximate, estimated graphically from plot, read-out: EC50 of transmitter evoked direct-current (ID), normalized I/Imax", "result": "~63", "unit": "µM"}, {"measurement": "Concentration at which evoked inward currents became visible/apparent", "setting": "OA/TAMac receptor [1]; 30 second perfusion-switched applications, −60 mV", "result": "around 1 µM"}, {"measurement": "Spearman rank-order correlation (rS) between rise rate and peak amplitude of evoked ID", "setting": "OA/TAMac receptor [1]; all responses of the concentration series of Figure 3C", "result": 0.97}, {"measurement": "Response of uninjected oocytes", "setting": "Uninjected oocytes", "result": "no response"}, {"measurement": "Response of uninjected oocytes", "setting": "Uninjected oocytes; listed as DA", "result": "do not respond"}]}
{"smiles": "NC1=NCC2c3ccccc3Cc3ccccc3N12", "note": "(stereo not drawn) [epinastine]", "values": [{"measurement": "IC50", "setting": "OA/TAMac receptor [3]; [5]", "result": "~3.7", "unit": "µM"}]}
{"smiles": "O=C(CCCN1CCC(O)(c2ccc(Cl)cc2)CC1)c1ccc(F)cc1", "note": "[haloperidol]", "values": [{"measurement": "Limit of solubility", "setting": "[4]", "result": "could not be tested at 100 µM because of its limit of solubility"}]}
{"smiles": "NCCc1c[nH]cn1", "note": "[histamine]", "values": [{"measurement": "Amplitude of agonist evoked ID relative to octopamine-evoked current", "setting": "OA/TAMac receptor [1]; 30 second perfusion-switch", "result": "no response or minimal response"}, {"measurement": "Amplitude of agonist evoked ID relative to octopamine-evoked current", "setting": "OA/TAMac receptor [1]; 30 second perfusion-switch, listed as Histamine", "result": "minimal response"}]}
{"smiles": "Cc1ccc(N(CC2=NCCN2)c2cccc(O)c2)cc1", "note": "[phentolamine]", "values": [{"measurement": "IC50", "setting": "OA/TAMac receptor [3]; [5]", "result": "~0.98", "unit": "µM"}]}
{"smiles": "C/C=C(/C)C(=O)O[C@H]1C(C)=C2[C@H]([C@@H]1OC(=O)CCCCCCC)[C@@](C)(OC(C)=O)C[C@H](OC(=O)CCC)[C@@]1(O)[C@H]2OC(=O)[C@@]1(C)O", "note": "[thapsigargin]", "values": [{"measurement": "Effect of pre-incubation on tyramine-induced ID waveform", "setting": "OA/TAMac receptor [1]; 1.7 µM in calcium-free ND 96 for three hours, n = 2", "result": "no apparent effect on the tyramine induced plateau"}]}
{"smiles": "COC(=O)[C@@H]1[C@H]2C[C@H]3c4[nH]c5ccccc5c4CCN3C[C@@H]2CC[C@@H]1O", "note": "[yohimbine]", "values": [{"measurement": "IC50", "setting": "OA/TAMac receptor [3]", "result": "~0.48", "unit": "µM"}]}
{"smiles": "NCCc1ccccc1", "note": "[β-phenylethylamine]", "values": [{"measurement": "Amplitude of agonist evoked ID relative to octopamine-evoked current", "setting": "OA/TAMac receptor [1]; 30 second perfusion-switch", "result": "comparable or greater amplitude than octopamine"}]}
